We go through 38 compounds from ChEMBL document CHEMBL6083232, “A review on synthetic inhibitors of dual-specific tyrosine phosphorylation-regulated kinase 1A (DYRK1A) for the treatment of Alzheimer's disease (AD)” (Bioorg Med Chem, 2024).

Molecules are shown by their SMILES.

Sequence of Cyclin-dependent kinase 1 (P06493 whole entry): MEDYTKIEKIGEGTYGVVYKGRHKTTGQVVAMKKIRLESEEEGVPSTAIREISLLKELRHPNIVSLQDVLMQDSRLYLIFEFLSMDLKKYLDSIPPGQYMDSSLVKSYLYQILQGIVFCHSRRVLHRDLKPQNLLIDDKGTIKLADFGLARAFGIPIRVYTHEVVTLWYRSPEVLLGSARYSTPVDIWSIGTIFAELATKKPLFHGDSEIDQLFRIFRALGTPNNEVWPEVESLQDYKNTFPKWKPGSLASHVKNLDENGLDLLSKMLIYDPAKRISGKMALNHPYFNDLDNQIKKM

The first series addresses T1, Dual specificity tyrosine-phosphorylation-regulated kinase 1A (Homo sapiens, UniProt Q13627). The experiment in a line: Inhibition of human recombinant 6xHis-tagged DYRK1A catalytic domain (1 to 502 residues) extracted from Escherichia coli BL21 (DE3) cells incubated for 30 mins by Bradford's reagent based analysis.
`COc1ccc(-c2c[nH]c3ncc(-c4ccc(O)c(O)c4)cc23)cc1OC`: the IC50 (commonly the concentration that inhibits the measured activity by half) came out at 470 nM. With `COc1ccc(-c2c[nH]c3ncc(-c4ccc(OCc5ccccc5)c(OCc5ccccc5)c4)cc23)cc1OC`, the IC50 is 18500 nM. For the compound `COc1ccc(-c2cnc3[nH]cc(-c4ccc(OC)c(OC)c4)c3c2)cc1OC`, the IC50 was 57800 nM. For the compound `COc1ccc(-c2cnc3[nH]cc(-c4ccc(F)c(F)c4)c3c2)cc1OC`, the IC50 was 5260 nM. On the same count and under the same terms, as for `COc1ccc(-c2c[nH]c3ncc(-c4ccc(OC)c(OC)c4)cc23)cc1`, the figure is 460 nM; as for `COc1ccc(-c2cnc3[nH]cc(-c4ccc(F)cc4)c3c2)cc1OC`, 1430 nM; as for `Oc1ccc(-c2cnc3[nH]cc(-c4ccc(O)c(O)c4)c3c2)cc1O`, 12 nM. With `Oc1ccc(-c2cnc3[nH]cc(-c4ccc(F)c(F)c4)c3c2)cc1O`, the IC50 came to 56600 nM.

Another series deals with T1, Dual specificity tyrosine-phosphorylation-regulated kinase 1A. Nature of the series: Inhibition of DYRK1A (unknown origin) by FRET assay.
For `CCN1/C(=C/C(C)=O)Sc2cc3oc4ccccc4c3cc21`, the IC50 came to 20 nM. The compound `Cc1ccc(NC(=O)c2n[nH]c3ccc(-c4cncc(CN5CCCCC5)c4)cc23)cn1` yielded an IC50 of 1 nM. `Cc1c(O)cccc1-c1ccc2nc(NC(=O)C3CC3F)sc2c1` (stereo not given) showed an IC50 of 6 nM.

Take `Cc1nc(Nc2ccccc2)c2c(-c3cc(N)nc(N)c3)c[nH]c2n1`: it took 2 nM to reach half-maximal inhibition (IC50). For `Cc1nc2ccc(-c3cc(N)nc(N)c3)nc2n1-c1ccccc1`, 2 nM corresponded to half-maximal inhibition (IC50).

For the compound `COc1ccc2c(c1)[nH]c1c3c(OC)cncc3cc(C#N)c21`, the IC50 turned out to be 180 nM.

On to `CC(=O)Nc1nc2cc(O)ccc2s1`, for which the IC50 came to 400 nM.

Test system in the next series: not listed separately
The experiment in a line: Half life in human. It is filed as ADME.
Take `CN1CCN(C(=O)c2ccc(NC(=O)Nc3nc4ccc(O)cc4s3)cc2)CC1`: the half-life (in general, the time in which the quantity being followed falls by half) is above 1 h.

In a further series the target is T1, Dual specificity tyrosine-phosphorylation-regulated kinase 1A. Nature of the series: Inhibition of DYRK1A (unknown origin) extracted from Escherichia coli BL21 (DE3) cells measured for 60 mins by FRET assay.
`CN(Cc1ccco1)c1ncnc2ccc(-c3ccc4c(c3)OCO4)cc12`: inhibition was half-maximal at 150 nM (IC50). Regarding `Oc1ccc(-c2cnc3cnc(-c4ccc(O)cc4)nc3c2)cc1`, the IC50 came to 900 nM. Same read-out and setting: the same measure for `CCCC#Cc1ccnc2[nH]cc(-c3ccnc(N)n3)c12`: 20 nM. On the same count and under the same terms, the same measure for `O=C1NC(Nc2ccc(O)cc2)=N/C1=C\c1ccc2c(c1)OCO2`: 84 nM.

The target of a further series is Dual specificity tyrosine-phosphorylation-regulated kinase 1B (Homo sapiens, UniProt Q9Y463). The experiment in a line: Inhibition of DYRK1B (unknown origin) by DiscoverX KINOMEscan assay.
Sequence of Dual specificity tyrosine-phosphorylation-regulated kinase 1B (Q9Y463 whole entry): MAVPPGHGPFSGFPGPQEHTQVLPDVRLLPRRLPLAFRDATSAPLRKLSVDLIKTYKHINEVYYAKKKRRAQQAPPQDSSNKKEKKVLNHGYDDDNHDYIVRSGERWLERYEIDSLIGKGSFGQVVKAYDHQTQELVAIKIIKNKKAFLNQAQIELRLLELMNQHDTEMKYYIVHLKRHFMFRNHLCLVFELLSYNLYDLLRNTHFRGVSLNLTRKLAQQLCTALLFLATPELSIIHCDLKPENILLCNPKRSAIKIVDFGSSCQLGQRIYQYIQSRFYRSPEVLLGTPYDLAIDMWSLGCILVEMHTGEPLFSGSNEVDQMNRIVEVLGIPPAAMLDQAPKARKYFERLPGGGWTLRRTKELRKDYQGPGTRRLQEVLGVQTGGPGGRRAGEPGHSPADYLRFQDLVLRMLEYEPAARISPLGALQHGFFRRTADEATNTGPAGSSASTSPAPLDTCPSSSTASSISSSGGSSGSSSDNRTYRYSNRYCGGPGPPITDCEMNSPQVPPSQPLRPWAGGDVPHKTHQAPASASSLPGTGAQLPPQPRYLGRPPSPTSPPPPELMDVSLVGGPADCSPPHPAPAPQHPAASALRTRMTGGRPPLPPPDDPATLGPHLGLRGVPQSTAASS
`O=C(Nc1ccc(C(=O)NCc2ccccc2)cc1)Nc1nc2ccc(O)cc2s1` gave an IC50 of 56.6 nM.

Another series deals with T1, Dual specificity tyrosine-phosphorylation-regulated kinase 1A. The experiment in a line: Inhibition of human DYRK1A in presence of ATP by Kinomescan method.
In the case of `NC1CCC(Nc2ncc3c(-c4ccnc(NCc5ccsc5)n4)n[nH]c3n2)CC1` (stereo not given), the IC50 turned out to be 14 nM. `COC(=N)c1nc2ccc3ncnc(Nc4ccc(F)cc4Br)c3c2s1`: the IC50 was 3 nM.

Regarding `NC1CCC(Nc2ncc3c(-c4ccnc(NCc5ccccc5)n4)n[nH]c3n2)CC1` (stereo not given), the IC50 came to 6 nM. `CCn1c2cc(OC)ccc2c2ccnc(C)c21`: the IC50 was found to be 9000 nM.

In the case of `NCC(Nc1nccc(-c2n[nH]c3nc(NC4CCC(N)CC4)ncc23)n1)c1cccc(Cl)c1` (stereo not given), the IC50 stood at 4.6 nM. In the case of `COc1cc2[nH]c(=O)c(C(=O)Nc3cc(C(=O)NCc4cccc(Cl)c4)ccc3C)cc2cc1OCCN1CCOCC1`, the IC50 came to 16 nM.

Another series has as its target T2, Dual specificity tyrosine-phosphorylation-regulated kinase 4 (Homo sapiens, UniProt Q9NR20).
T2 sequence (Q9NR20 whole entry): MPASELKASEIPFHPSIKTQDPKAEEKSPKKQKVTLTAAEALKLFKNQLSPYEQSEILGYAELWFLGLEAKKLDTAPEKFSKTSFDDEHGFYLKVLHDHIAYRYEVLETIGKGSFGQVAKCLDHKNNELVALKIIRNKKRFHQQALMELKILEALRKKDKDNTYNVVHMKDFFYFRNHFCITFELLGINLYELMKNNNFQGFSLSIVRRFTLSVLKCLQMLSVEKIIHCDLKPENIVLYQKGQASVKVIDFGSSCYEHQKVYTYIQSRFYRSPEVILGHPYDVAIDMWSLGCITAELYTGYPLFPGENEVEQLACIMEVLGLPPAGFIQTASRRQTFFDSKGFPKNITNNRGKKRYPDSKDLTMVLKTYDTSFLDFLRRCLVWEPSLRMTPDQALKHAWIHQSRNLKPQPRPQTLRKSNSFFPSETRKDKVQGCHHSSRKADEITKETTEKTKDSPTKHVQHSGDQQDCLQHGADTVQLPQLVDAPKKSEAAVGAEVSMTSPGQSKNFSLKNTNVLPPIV
The experiment in a line: Inhibition of DYRK4 (unknown origin).
Turning to `COc1ccc2cc3c4c(cc(OC)c(OC)c4c2c1)C(=O)N3` [ARISTOLACTAM BIII], 1180 nM corresponded to half-maximal inhibition (IC50).

Another series has as its target Cyclin-dependent kinase 1 (Homo sapiens, UniProt P06493). Nature of the series: Inhibition of CDK1 (unknown origin).
Take `COc1ccc2cc3c4c(cc(OC)c(OC)c4c2c1)C(=O)N3` [ARISTOLACTAM BIII]: the IC50 came to 405 nM.

The next series addresses T1, Dual specificity tyrosine-phosphorylation-regulated kinase 1A. Nature of the series: Inhibition of DYRK1A (unknown origin).
As for `CC(C)N1CCC(n2cc(C(=O)Nc3cc4cc(-c5cnn(C)c5)ccc4cn3)cn2)CC1`, the IC50 is 1 nM. Same read-out and setting: as for `COCCn1nc2c(c1C#N)-c1cnc3[nH]cc(c3c1)-c1cn(nc1C(F)(F)F)CCCC(=O)N(C)C2`, the figure is below 50 nM. Still for that read-out and setting: as for `O=c1[nH]c2ccc(-c3cncc(NCc4ccccc4)n3)cc2[nH]1`, the figure is 1 nM. Consider `Cn1cc(C(=O)Nc2ncc(-c3ccc(C#N)cc3)s2)ccc1=O`, for which the IC50 is below 10 nM. `Cc1nc2ccc(-c3ccnc(N)c3)nc2n1-c1ccc(N2CCN(CCOCCOCCC(=O)N3CCN(Cc4ccc(CNc5cccc6c5C(=O)N(C5CCC(=O)NC5=O)C6)cc4)CC3)CC2)c(F)c1` (stereo not given) had an IC50 below 10000 nM. Compound `O=C(NC1=Cc2ccc(O)cc2C1)Nc1ccc(NC(=O)c2ccc(O)cc2)cc1` came in with an IC50 of 7.8 nM. `CN1CCN(c2ccc(-c3ncnc4ccc(-c5ccnc(N)c5)cc34)cc2F)CC1` had an IC50 below 100 nM. Consider `COc1nc(NC2CCN(C(C)=O)CC2F)nn2ccc(-c3ccc4nnn(CC(F)F)c4c3)c12` (stereo not given), for which the IC50 came out at 1 nM. Turning to `CC(C)Nc1cncc(-c2ccc3cnc(NC(=O)C4CCN(C)CC4)cc3c2)n1`, the IC50 turned out to be 1 nM. On to `COCC(CC(C)C)NC1=N/C(=C\c2ccc3ncsc3c2)C(=O)N1C` (stereo not given), for which the IC50 is below 5 nM.

For the next series, the target named is Dual specificity protein kinase CLK1 (Homo sapiens, UniProt P49759). Nature of the series: Inhibition of CLK1 (unknown origin).
Sequence of Dual specificity protein kinase CLK1 (P49759 whole entry): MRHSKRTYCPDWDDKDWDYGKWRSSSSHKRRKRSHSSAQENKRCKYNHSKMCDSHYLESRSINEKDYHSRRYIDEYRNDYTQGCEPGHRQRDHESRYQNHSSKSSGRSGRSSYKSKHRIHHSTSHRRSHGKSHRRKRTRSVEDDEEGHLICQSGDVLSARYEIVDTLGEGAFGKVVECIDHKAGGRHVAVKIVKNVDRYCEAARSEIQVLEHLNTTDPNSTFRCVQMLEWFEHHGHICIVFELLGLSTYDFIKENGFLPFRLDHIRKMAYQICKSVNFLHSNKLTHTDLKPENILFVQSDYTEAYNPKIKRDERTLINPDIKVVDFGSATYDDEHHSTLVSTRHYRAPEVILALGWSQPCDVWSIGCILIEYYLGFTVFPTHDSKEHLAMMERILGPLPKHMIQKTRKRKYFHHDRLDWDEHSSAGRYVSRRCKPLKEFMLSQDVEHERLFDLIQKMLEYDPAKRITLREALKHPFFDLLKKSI
As to `COc1ccc2cc3c4c(cc(OC)c(OC)c4c2c1)C(=O)N3` [ARISTOLACTAM BIII], 50.3 nM corresponded to half-maximal inhibition (IC50).
